# Experimental data: US6893846B2, “Primers for use in detecting beta-lactamases” (priority 1998, dated 2005)
# Where two headings read alike, the source gives them in different places.
# Assays:
# K. pneumoniae 225 [1] = assay: NCCLS disk diffusion assay; assay type: cell-based, Klebsiella pneumoniae; settings: disk diffusion, Kleb 225
# E. aerogenes [2] = assay: Double-disk potentiation test; assay type: cell-based, Enterobacter aerogenes; settings: all the E. aerogenes strains selected; potentiation by clavulanic acid
# Source text: This test described by Jarlier et al., Rev. Infect. Dis.
# [3] = biological target: single beta-lactamase in K. pneumoniae cell extracts (Klebsiella pneumoniae, UniProt P0AD64, E235K/G234S); assay: Spectrophotometric hydrolysis assay on crude beta-lactamase extracts; settings: K. pneumoniae Pit 82 extract, beta-lactamase pI 8.2; 100 μM substrate
# [4] = biological target: single beta-lactamase in K. pneumoniae cell extracts (Klebsiella pneumoniae, UniProt P0AD64, G234S); assay: as above; settings: K. pneumoniae Pit 100 extract, beta-lactamase pI 7.6; 100 μM substrate
# [5] = biological target: single beta-lactamase in K. pneumoniae cell extracts (Escherichia coli, UniProt P62593, E102K/R162S); assay: as above; settings: K. pneumoniae Pit 16 extract, beta-lactamase pI 5.6; 100 μM substrate
# [6] = biological target: beta-lactamases in sonic extracts of K. pneumoniae (Klebsiella pneumoniae, UniProt P0AD64); settings: Kpn1, beta-lactamase pI 7.6 (SHV-1); 0.75 μg/ml cefotaxime
# [7] = test system: beta-lactamases in sonic extracts of K. pneumoniae; settings: 0.75 μg/ml cefotaxime
# [8] = biological target: beta-lactamases in sonic extracts of K. pneumoniae (Escherichia coli, UniProt P62593); settings: 0.75 μg/ml cefotaxime
# [9] = biological target: beta-lactamases in sonic extracts of K. pneumoniae (Klebsiella pneumoniae, UniProt P0AD64, E235K/G234S); settings: Kpn2, beta-lactamase pI 8.2 (SHV-5); 0.75 μg/ml cefotaxime
# [10] = biological target: beta-lactamases in sonic extracts of P. mirabilis (Escherichia coli, UniProt P62593, E102K/R162S); assay: Isoelectric focusing overlay: cefotaxime hydrolysis and inhibitors; settings: beta-lactamase pI 5.6 (TEM-10 or 26), 0.75 μg/ml cefotaxime
# E. coli = assay: Agar dilution MIC, South African isolates; assay type: cell-based, Escherichia coli; settings: tzp with tazobactam 4 μg/ml
# Source text: The strains were provided in response to a request for all strains of Enterobacteriaceae, lacking inducible beta-lactamases, that were intermediate or resistant to cefotaxime or ceftazidime. […]
# [11] = test system: E. coli HB101 transformant (17 kb plasmid); settings: disk diffusion, Tr (17 kb) = transformant E. coli HB101
# [12] = biological target: single beta-lactamase in P. mirabilis cell extracts (Escherichia coli, UniProt P62593, E102K/R162S); assay: Spectrophotometric hydrolysis assay on crude beta-lactamase extracts; settings: P. mirabilis Pit 85 extract, beta-lactamase pI 5.6; 100 μM substrate
# P. mirabilis = assay: Agar dilution MIC, South African isolates; assay type: cell-based, Proteus mirabilis; settings: 4 strains, tzp with tazobactam 4 μg/ml
# How it was run: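 Clinical isolates from South African hospitals, intermediate or resistant to cefotaxime or ceftazidime and lacking inducible beta-lactamases, were tested by NCCLS M7-T2 agar dilution. Quality-control strains E. coli ATCC 25922 and 35218, P. aeruginosa ATCC 27853 and S. aureus ATCC 29213 were run alongside. Results were interpreted by NCCLS criteria.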
# E. aerogenes [13] = assay type: cell-based, Enterobacter aerogenes
# Experimental: Antibiotic susceptibilities were determined by standard disk-diffusion (NCCLS Standard M2-A6) and agar-dilution (NCCLS Standard M7-A4) procedures. Disks were obtained from Becton Dickinson Microbiology Systems (Cockeysville, Md.). […] Throughout this study, results were interpreted using NCCLS criteria for disk diffusion (NCCLS M2-A6) and broth dilution (NCCLS M7-A4).
# K. pneumoniae 225 [14] = assay: NCCLS microdilution susceptibility test; assay type: cell-based, Klebsiella pneumoniae; settings: Klebsiella pneumoniae, 225
# [15] = test system: E. coli C600 transconjugant; settings: disk diffusion, Tc = transconjugate E. coli C600
# [16] = biological target: single beta-lactamase in E. coli cell extracts (Escherichia coli, UniProt P62593, E102K/R162S); assay: Spectrophotometric hydrolysis assay on crude beta-lactamase extracts; settings: E. coli Pit 64 extract, beta-lactamase pI 5.6; 100 μM substrate
smiles,measurement,setting,value
CO/N=C(\C(=O)N[C@@H]1C(=O)N2C(C(=O)O)=C(COC(C)=O)CS[C@H]12)c1csc(N)n1 [cefotaxime],Zone Size,K. pneumoniae 225 [1],15 mm
same,double disk test,E. aerogenes [2],positive
same,Hydrolysis,[3],11 nmol of substrate hydrolyzed/m
same,Hydrolysis,[4],11 nmol of substrate hydrolyzed/m
same,Hydrolysis,[5],4 nmol of substrate hydrolyzed/m
same,ctx hydrolysis,[6],No
same,ctx hydrolysis,"[7]; Kpn1, beta-lactamase pI 5.6 (TEM-10 or 26)",Yes
same,ctx hydrolysis,"[7]; Kpn2, beta-lactamase pI 7.6 (SHV-2 or 8)",Yes
same,ctx hydrolysis,"[7]; Kpn3, beta-lactamase pI 8.0 (AmpC)",Yes
same,ctx hydrolysis,"[8]; Kpn2, beta-lactamase pI 5.4 (TEM-1)",No
same,ctx hydrolysis,"[8]; Kpn3, beta-lactamase pI 5.4 (TEM-1)",No
same,ctx hydrolysis,[9],Yes
same,ctx hydrolysis,[10],Yes
same,MIC range,"E. coli; resistance phenotype Ec1, 3 strains",1 µg/mL
same,MIC range,"E. coli; resistance phenotype Ec2, 1 strain",16 µg/mL
same,Zone Size,[11],34 mm
same,Hydrolysis,[12],5 nmol of substrate hydrolyzed/m
same,MIC range,P. mirabilis,0.25 to 0.5 µg/mL
same,MIC range,E. aerogenes [13]; 1 E. aerogenes strain with Bush group 1 and group 2be (SHV-3) enzymes,1 µg/mL
same,MIC range,E. aerogenes [13]; 1 E. aerogenes strain with Bush group 1 and group 2be (SHV-5) enzymes,1 to 2 µg/mL
same,MIC range,E. aerogenes [13]; 29 E. aerogenes strains with Bush group 1 and group 2be (SHV-4) enzymes,1 to 2 µg/mL
same,susceptibility by MIC,E. aerogenes [13]; all E. aerogenes strains,decreased susceptibility
same,MIC,K. pneumoniae 225 [14],16 µg/mL
same,Zone Size,[15],12 mm
same,Hydrolysis,[16],1 nmol of substrate hydrolyzed/m
